# Tests used:
# c-kit = target: T1, c-kit (Homo sapiens, UniProt P10721); test: Inhibitory activity against c-kit autophosphorylation (MO7e cells, h-SCF); format: cell-based; conditions: for IC50: MO7e cells, h-SCF stimulation, read-out: c-kit IC50; for inhibition at 1 µM: Mo7e, figure in parentheses in −( ), at 1000 nM
# T1 construct: MO7e (human megakaryocytic leukemia cell line) which had been arrested for 20 hr; endogenous in cells; host or cells: MO7e human megakaryocytic leukemia cell line
# Outline: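 In this cellular autophosphorylation assay, compound-treated MO7e cells (1 hr) were challenged with human stem cell factor at 50 ng/ml for 5 min; detection relied on PY-20 capture and anti-c-kit/HRP immunodetection at 450 nm.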
# PDGF-Ra = target: T2, PDGF-Ra (Homo sapiens, UniProt P16234); test: Inhibitory activity against PDGF-Ra phosphorylation by PDGF-AA stimulation using G292; format: cell-based; conditions: for IC50: > means inhibition at indicated concentration not more than 50%, < and << not less than 50%, read-out: PDGF (E) IC50; for PDGF (E) inhibition (%), figure in parentheses in >30( ): concentration not defined in key (presumably 30 nM); for inhibition at 0.1 µM: G292, figure in parentheses in >100( ), at 100 nM, read-out: PDGF (E) inhibition (%) at 100 nM
# T2 construct: host or cells: G-292 human osteosarcoma cells
# Outline: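 Read-out: A450 from a sandwich ELISA (PY-20 capture, anti-PDGF-Ra detection, peroxidase colour) of lysates from G-292 cells given compound for 1 hr at 37 °C before a 5 min challenge with PDGF-AA at 50 ng/ml.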
# T1 sequence (P10721 26-976): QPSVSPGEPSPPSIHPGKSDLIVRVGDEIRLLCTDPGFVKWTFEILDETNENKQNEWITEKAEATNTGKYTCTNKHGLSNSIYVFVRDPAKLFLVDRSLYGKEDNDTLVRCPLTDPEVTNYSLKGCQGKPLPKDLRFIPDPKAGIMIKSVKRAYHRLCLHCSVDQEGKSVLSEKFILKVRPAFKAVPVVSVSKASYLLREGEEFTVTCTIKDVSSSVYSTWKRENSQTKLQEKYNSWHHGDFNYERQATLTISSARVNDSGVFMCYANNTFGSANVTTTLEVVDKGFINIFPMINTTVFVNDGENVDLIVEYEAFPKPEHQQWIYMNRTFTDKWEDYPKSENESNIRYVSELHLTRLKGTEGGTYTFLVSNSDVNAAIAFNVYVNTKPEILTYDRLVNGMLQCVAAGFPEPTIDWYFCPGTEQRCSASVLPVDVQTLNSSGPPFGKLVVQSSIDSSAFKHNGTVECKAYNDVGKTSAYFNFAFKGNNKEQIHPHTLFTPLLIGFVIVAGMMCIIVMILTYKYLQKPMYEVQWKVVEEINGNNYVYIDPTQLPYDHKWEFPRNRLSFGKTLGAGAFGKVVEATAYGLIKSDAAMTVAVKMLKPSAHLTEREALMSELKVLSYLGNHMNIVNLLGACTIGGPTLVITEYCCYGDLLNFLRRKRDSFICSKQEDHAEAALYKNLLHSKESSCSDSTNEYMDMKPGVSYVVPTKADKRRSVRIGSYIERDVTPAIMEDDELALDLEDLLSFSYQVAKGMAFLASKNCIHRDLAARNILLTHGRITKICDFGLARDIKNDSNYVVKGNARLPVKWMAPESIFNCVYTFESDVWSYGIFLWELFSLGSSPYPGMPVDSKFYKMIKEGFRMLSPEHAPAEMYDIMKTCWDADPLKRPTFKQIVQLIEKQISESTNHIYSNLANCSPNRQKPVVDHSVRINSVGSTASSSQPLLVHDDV
# T2 sequence (P16234 24-1089): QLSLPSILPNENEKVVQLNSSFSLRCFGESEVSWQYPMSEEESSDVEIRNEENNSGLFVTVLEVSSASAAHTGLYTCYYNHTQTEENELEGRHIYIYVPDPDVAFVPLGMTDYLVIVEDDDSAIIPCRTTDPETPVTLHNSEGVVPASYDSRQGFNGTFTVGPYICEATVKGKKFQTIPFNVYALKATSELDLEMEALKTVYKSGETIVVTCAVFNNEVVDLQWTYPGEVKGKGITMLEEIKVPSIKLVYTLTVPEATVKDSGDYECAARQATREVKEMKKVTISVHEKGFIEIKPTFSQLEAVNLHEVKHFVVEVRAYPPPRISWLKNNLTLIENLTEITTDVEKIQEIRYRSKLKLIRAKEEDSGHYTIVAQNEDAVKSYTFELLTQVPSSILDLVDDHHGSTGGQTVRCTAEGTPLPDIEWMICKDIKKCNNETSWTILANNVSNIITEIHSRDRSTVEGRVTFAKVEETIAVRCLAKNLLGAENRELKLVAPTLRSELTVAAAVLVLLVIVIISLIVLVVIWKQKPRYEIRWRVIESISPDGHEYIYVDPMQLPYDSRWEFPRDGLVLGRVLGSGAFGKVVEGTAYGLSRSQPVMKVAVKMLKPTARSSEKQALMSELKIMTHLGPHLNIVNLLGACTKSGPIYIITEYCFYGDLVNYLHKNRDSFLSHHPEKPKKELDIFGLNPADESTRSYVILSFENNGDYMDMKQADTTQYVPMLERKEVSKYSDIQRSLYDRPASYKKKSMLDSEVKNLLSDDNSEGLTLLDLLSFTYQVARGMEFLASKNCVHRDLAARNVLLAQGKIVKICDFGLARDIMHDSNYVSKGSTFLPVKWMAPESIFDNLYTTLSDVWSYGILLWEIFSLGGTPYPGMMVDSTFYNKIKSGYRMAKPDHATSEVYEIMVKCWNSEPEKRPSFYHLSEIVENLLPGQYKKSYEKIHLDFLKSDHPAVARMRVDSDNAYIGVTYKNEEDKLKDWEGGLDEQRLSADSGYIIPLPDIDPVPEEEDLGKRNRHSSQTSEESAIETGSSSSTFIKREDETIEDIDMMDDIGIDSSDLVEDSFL
IC50 (c-kit),IC50 (PDGF-Ra),"PDGF (E) inhibition (%), figure in parentheses in >30( ) (PDGF-Ra)",inhibition at 1 µM (c-kit),inhibition at 0.1 µM (PDGF-Ra),Structure (SMILES)
65 nM,19 nM,–,–,–,"COc1cc2nccc(Oc3ccc(NCCOc4cccc(C)c4)cc3C)c2cc1OC [Example 878, N-{4-[(6,7-Dimethoxy-4-quinolyl)oxy]-3-methylphenyl}-N-[2-(3-methylphenoxy)ethyl]amine]"
48 nM,20 nM,–,–,–,"COc1cc2nccc(Oc3ccc(NCCOc4ccc(C)cc4)cc3C)c2cc1OC [Example 879, N-{4-[(6,7-Dimethoxy-4-quinolyl)oxy]-3-methylphenyl}-N-[2-(4-methylphenoxy)ethyl]amine]"
149 nM,16 nM,–,–,–,"COc1cc2nccc(Oc3ccc(NCCOc4ccccc4OC)cc3C)c2cc1OC [Example 880, N-{4-[(6,7-Dimethoxy-4-quinolyl)oxy]-3-methylphenyl}-N-[2-(2-methoxyphenoxy)ethyl]amine]"
346 nM,> 30 nM,29%,–,–,"COc1cc2nccc(Oc3ccc(NCCOc4c(C)cccc4C)cc3C)c2cc1OC [Example 881, N-{4-[(6,7-Dimethoxy-4-quinolyl)oxy]-3-methylphenyl}-N-[2-(2,6dimethylphenoxy)ethyl]amine]"
–,23 nM,–,36%,–,"COc1cc2nccc(Oc3ccc(NCCOc4c(OC)cccc4OC)cc3C)c2cc1OC [Example 882, N-[2-(2 6-Dimethoxyphenoxy)ethyl]-N-{4-[(6,7-dimethoxy-4-quinolyl)oxy]-3-methylphenyl}amine]"
521 nM,> 30 nM,>30(30) %,–,–,"COc1cc2nccc(Oc3ccc(NCCOc4c(F)cccc4F)cc3C)c2cc1OC [Example 883, N-[2-(2,6-Difluorophenoxy)ethyl]-N-{4-[(6,7-dimethoxy-4-quinolyl)oxy]-3-methylphenyl}amine]"
–,44 nM,–,30%,–,"COc1cc2nccc(Oc3ccc(NCCOc4c(OC)cccc4OC)c(C)c3C)c2cc1OC [Example 884, N-[2-(2,6-Dimethoxyphenoxy)ethyl]-N-{4-[(6,7-dimethoxy-4-quinolyl)oxy]-2,3-dimethylphenyl}amine]"
420 nM,< 3 nM,–,–,–,"COc1cc2nccc(Oc3ccc(NCCCOc4ccccc4)cc3)c2cc1OC [Example 885, N-{4-[(6,7-Dimethoxy-4-quinolyl)oxy]phenyl}-N-(3-phenoxypropyl)amine]"
–,> 100 nM,–,27%,47%,"COc1cc2nccc(Oc3cc(C)c(NCCCOc4ccccc4)cc3C)c2cc1OC [Example 886, N-{4-[(6,7-Dimethoxy-4-quinolyl)oxy]-2 5-dimethylphenyl}-N-(3-phenoxypropyl)amine]"
–,50 nM,–,20%,–,"COc1cc2nccc(Oc3ccc(NCCCOc4ccccc4)c(C)c3C)c2cc1OC [Example 887, N-{4-[(6,7-Dimethoxy-4-quinolyl)oxy]-2,3-dimethylphenyl}-N-(3-phenoxypropyl)amine]"
385 nM,12 nM,–,–,–,"COc1cc2nccc(Oc3ccc(NCCCOc4ccccc4C)cc3)c2cc1OC [Example 888, N-{4-[(6,7-Dimethoxy-4-quinolyl)oxy]phenyl}-N-[3-(2-methylphenoxy)propyl]amine]"
–,> 100 nM,–,28%,30%,"COc1cc2nccc(Oc3cc(C)c(NCCCOc4ccccc4C)cc3C)c2cc1OC [Example 889, N-{4-[(6,7-Dimethoxy-4-quinolyl)oxy]-2,5-dimethylphenyl}-N-[3-(2-methylphenoxy)propyl]amine]"
–,95 nM,–,39%,–,"COc1cc2nccc(Oc3ccc(NCCCOc4ccccc4C)c(C)c3C)c2cc1OC [Example 890, N-{4-[(6,7-Dimethoxy-4-quinolyl)oxy]-2,3-dimethylphenyl}-N-[3-(2-methylphenoxy)propyl]amine]"
280 nM,7 nM,–,–,–,"COc1cc2nccc(Oc3ccc(NCCCOc4ccccc4Cl)cc3)c2cc1OC [Example 891, N-[3-(2-Chlorophenoxy)propyl]-N-{4-[(6,7-dimethoxy-4-quinolyl)oxy]phenyl}amine]"
–,> 100 nM,–,30%,25%,"COc1cc2nccc(Oc3cc(C)c(NCCCOc4ccccc4Cl)cc3C)c2cc1OC [Example 892, N-[3-(2-Chlorophenoxy)propyl]-N-{4-[(6,7-dimethoxy-4-quinolyl)oxy]-2,5-dimethylphenyl}amine]"
640 nM,52 nM,–,–,–,COc1cc2nccc(Oc3ccc(NCCCOc4ccccc4Cl)c(C)c3C)c2cc1OC [Example 893]

IC50 (c-kit),IC50 (PDGF-Ra),"PDGF (E) inhibition (%), figure in parentheses in >30( ) (PDGF-Ra)",inhibition at 1 µM (c-kit),inhibition at 0.1 µM (PDGF-Ra),Structure (SMILES)
–,> 100 nM,–,23%,49%,"COc1cc2nccc(Oc3ccc(NCCOc4c(C)cccc4C)c(C)c3C)c2cc1OC [Example 894, N-{4-[(6,7-Dimethoxy-4-quinolyl)oxy]-2,3-dimethylphenyl}-N-[2-(2,6-dimethylphenoxy)ethyl]amine]"
–,> 100 nM,–,20%,33%,"COc1cc2nccc(Oc3cc(C)c(NCCOc4c(C)cccc4C)cc3C)c2cc1OC [Example 895, N-{4-[(6,7-Dimethoxy-4-quinolyl)oxy]-2,5-dimethylphenyl}-N-[2-(2,6-dimethylphenoxy)ethyl]amine]"
–,96 nM,–,31%,–,"COc1cc2nccc(Oc3cc(C)c(NCCOc4c(OC)cccc4OC)cc3C)c2cc1OC [Example 896, N-[2-(2,6-Dimethoxyphenoxy)ethyl]-N-{4-[(6,7-dimethoxy-4-quinolyl)oxy]-2,5-dimethylphenyl}amine]"
–,5 nM,–,40%,–,"COc1cc2nccc(Oc3ccc(NC(=S)NC(=O)c4ccccc4Cl)c(F)c3)c2cc1OC [Example 905, N-(2-Chlorobenzoyl)-N′-{4-[(6,7-dimethoxy-4-quinolyl)oxy]-2-fluorophenyl}thiourea]"
757 nM,9 nM,–,–,–,"COc1cc2nccc(Oc3ccc(NC(=S)NC(=O)c4ccccc4I)c(F)c3)c2cc1OC [Example 908, N-{4-[(6,7-Dimethoxy-4-quinolyl)oxy]-2-fluorophenyl}-N′-(2-iodobenzoyl)thiourea]"
240 nM,9 nM,–,–,–,"COc1cc2nccc(Oc3ccc(NC(=S)NC(=O)c4ccccc4I)cc3F)c2cc1OC [Example 915, N-{4-[(6,7-Dimethoxy-4-quinolyl)oxy]-3-fluorophenyl}-N′-(2-iodobenzoyl)thiourea]"
546 nM,132 nM,–,–,–,"COc1cc2nccc(Oc3ccc(NC(=S)NC(=O)c4ccccc4C(F)(F)F)cc3F)c2cc1OC [Example 917, N-{4-[(6,7-Dimethoxy-4-quinolyl)oxy]-3-fluorophenyl}-N′-[2-(trifluoromethyl)benzoyl]thiourea]"
430 nM,35 nM,–,–,–,"COc1cc2nccc(Oc3ccc(NC(=S)NC(=O)c4ccccc4C)c([N+](=O)[O-])c3)c2cc1OC [Example 925, N-{4-[(6,7-Dimethoxy-4-quinolyl)oxy]-2-nitrophenyl}-N′-(2-methylbenzoyl)thiourea]"
623 nM,5 nM,–,–,–,"COc1cc2ncnc(Oc3ccc(NC(=S)NC(=O)c4ccccc4C)cc3)c2cc1OC [Example 927, N-{4-[(6,7-Dimethoxy-4-quinazolinyl)oxy]phenyl}-N′-(2-methylbenzoyl)thiourea]"
184 nM,< 10 nM,–,–,–,"COc1cc2nccc(Oc3ccc(NC(=S)NC(=O)c4cccc(C)c4)cc3)c2cc1OC [Example 930, N-{4-[(6,7-Dimethoxy-4-quinolyl)oxy]phenyl}-N′-(3-methylbenzoyl)thiourea]"
300 nM,< 10 nM,–,–,–,"COc1cc2nccc(Oc3ccc(NC(=S)NC(=O)c4ccc(C)cc4)cc3)c2cc1OC [Example 959, N-{4-[(6,7-Dimethoxy-4-quinolyl)oxy]phenyl}-N′-(4-methylbenzoyl)thiourea]"
–,20 nM,–,15%,–,"COc1cc2nccc(Oc3ccc(NC(=S)NC(=O)c4ccc(I)cc4)c(F)c3)c2cc1OC [Example 967, N-{4-[(6,7-Dimethoxy-4-quinolyl)oxy]-2-fluorophenyl}-N′-(4-iodobenzoyl)thiourea]"
425 nM,14 nM,–,–,–,"COc1cc2nccc(Oc3ccc(NC(=S)NC(=O)c4ccc5c(c4)OCO5)cc3)c2cc1OC [Example 989, N-(1,3-Benzodioxol-5-ylcarbonyl)-N′-{4-[(6,7-dimethoxy-4-quinolyl)oxy]phenyl}thiourea]"
–,19 nM,–,20%,–,"COc1cc2nccc(Oc3ccc(NC(=S)NC(=O)c4ccc(-c5ccccc5)cc4)cc3F)c2cc1OC [Example 991, N-{4-[(6,7-Dimethoxy-4-quinolyl)oxy]-3-fluorophenyl}-N′-(4-phenylbenzoyl)thiourea]"
–,27 nM,–,47%,–,"CCCc1ccc(C(=O)NC(=S)Nc2ccc(Oc3ccnc4cc(OC)c(OC)cc34)cc2F)cc1 [Example 994, N-{4-[(6,7-Dimethoxy-4-quinolyl)oxy]-2-fluorophenyl}-N′-(4-propylbenzoyl)thiourea]"
–,87 nM,–,23%,–,"CCCCc1ccc(C(=O)NC(=S)Nc2ccc(Oc3ccnc4cc(OC)c(OC)cc34)cc2F)cc1 [Example 995, N-(4-Butylbenzoyl)-N′-{4-[(6,7-dimethoxy-4-quinolyl)oxy]-2-fluorophenyl}thiourea]"
